From US12121521B2, “Uses of salt-inducible kinase (SIK) inhibitors for treating osteoporosis” (The General Hospital Corporation, priority 2016, dated 2024) come the findings set out here.

Assay [1] deals with Ocy454 cells. The experiment in a line: Gene expression in Ocy454 cells by RT-qPCR. The format is cell-based, mouse.
A further assay has as its system male C57B/6 mice. The experiment in a line: YKL-05-099 dose range once daily for two weeks: histomorphometry. The format is in vivo, mouse. The conditions noted are these: 18 mg/kg once daily. How it is done:
Right tibia from 8-week-old mice were subjected to bone histomorphometric analysis. The mice were injected 20 mg/kg body weight of calcein and 40 mg/kg body weight of demeclocycline on 7 and 2 days before necropsy, respectively. The tibia was dissected and fixed in 70% ethanol for 3 days. Fixed bones were dehydrated in graded ethanol, then infiltrated and embedded in methylmethacrylate without demineralization. Undecalcified 4-μm-thick longitudinal sections were obtained using microtome (RM2255, Leica Biosystems., IL, USA). Sections were left unstained for dynamic parameters measurement, and consecutive sections were stained with tartrate-resistant acid phosphatase and counterstained with toluidine blue for measurement of cellular parameters. A standard dynamic bone histomorphometric analysis of the tibial metaphysis was done using the Osteomeasure analyzing system (Osteometrics Inc., Decatur, GA, USA). Measurements were performed in the area of secondary spongiosa, 200 μm below the proximal growth plate. The observer was blinded to the experimental genotype at the time of measurement. The structural, dynamic and cellular parameters were calculated and expressed according to the standardized nomenclature (75).
Static and dynamic histomorphometry was performed (see FIG. 24). […] Effects on osteoclast differentiation were assessed by TRAP secretion assays and counting multi-nucleated TRAP-positive cells (see FIG. 26). M-CSF signaling in primary macrophages, was assessed by immunoblotting for MCSF-receptor Y723 phosphorylation and ERK1/2 phosphorylation (see FIG. 27).

Assay [2] has as its system Ocy454 cells. The experiment in a line: Immunoblotting of Ocy454 cell lysates (HDAC4/5, CRTC2, SIK2 phosphorylation and localisation). The class given is cell-based, mouse. For orientation: In western blotting, separated proteins are transferred to a membrane and probed.
Assay [3] relates to Ocy454 cells. Briefly: RNA-seq of treated Ocy454 cells. The class given is cell-based, mouse. How it is done: The ability of YKL-05-093 to mimic the effects of PTH with respect to SOST and RANKL gene regulation supports the hypothesis that the actions of YKL-05-093 might mimic the effects of PTH on many genes. Therefore, RNA-seq was perfumed on Ocy454 cells treated for four hours with vehicle, PTH (1 nM), or YKL-05-093 (0.5 μM) to determine the overlap in global gene regulation by these two agents. […] Of the 446 PTH-regulated genes, 142 (32%) were co-regulated in the same direction by YKL-05-093 (FIGS. 6A and 6B and Table 3 for differentially expressed genes, and Table 4 for all RNA-seq data). This significant overlap was not due to random chance (FIGS. 15A and 15B). Gene ontology analysis for the genes regulated by both PTH and YKL-05-093 is shown in FIGS. 15C and 15D: many of the co-regulated genes fit into categories of interest such as “ossification” and “mesenchyme development”,
Total RNA was subjected to rRNA depletion using RiboZero kit (Illumina) followed by NGS library construction using NEBNext Ultra Directional RNA Library Prep Kit for Illumina (New England Biolabs). Experimental duplicates were performed for each condition. Sequencing was performed on Illumina HiSeq 2500 instrument, resulting in an average of 33 million pairs of 50 bp reads per sample. Sequencing reads were mapped to the mouse reference genome (mm10/GRCm38) using STAR (bioinformatics.oxfordjournals.org/content/early/2012/10/25/bioinformatics.bts635). Gene expression counts were calculated using HTSeq v.0.6.0 (www.huber.embl.de/users/anders/HITSeq/doc/overview.html) based on a current Ensembl annotation file for mm10/GRCm38 (release 75). Differential expression analysis was performed using EgdeR package based on the criteria of >2-fold change in expression value versus control and false discovery rates (FDR)<0.05. Venn diagrams from gene set analysis were generated using genes with >1.5 fold change in expression values and FDR <0.05. Significance testing for gene set overlap was performed according to a standard hypergeometric distribution, p-values <2.2*10^−16. The accession number for the RNA-seq dataset reporter in this paper is GEO: GSE76932 (www.ncbi.nlm.nih.gov/geo/query/acc.cgi?acc=GSE76932).

Where [4] appears, read: 1 μM, 4 hours, control vs shSIK2/3 cells, FIG. 8B.
The mark [5] stands for this setting: control vs SIK2/3 deficient cells, 0.5 μM, 4 hours.

SMILES strings stand for the structures.

For `COc1ccc(N2C(=O)N(c3c(C)cccc3Cl)Cc3cnc(Nc4ccc(C5CCN(C)CC5)cc4OC)nc32)nc1` [YKL-05-099], in the assay with Ocy454 cells [1] (setting [4]), the RANKL expression entry was “RANKL up-regulation in a SIK2/3-dependent manner” and the SOST expression entry is reported as “SOST down-regulation”. This compound also showed an Ob.S/BS in the assay on male C57B/6 mice (p<0.01 vs vehicle) of 16.8±1.3. The trabecular bone volume with male C57B/6 mice (p<0.01 vs vehicle, in % (unit assumed)) is 16.3±2.0. This compound also registered an Oc.S/BS with male C57B/6 mice (p<0.05 vs vehicle) of 1.59±0.4. Moreover, the “HDAC4 S246 phosphorylation” value in the assay on Ocy454 cells [2] (indicated doses, 20 minutes, FIG. 8A) is recorded as “dose-dependent reduction in HDAC4 S246 phosphorylation”.

With `COc1ccc(N2C(=O)N(c3c(C)cccc3C)Cc3cnc(Nc4ccc(C5CCN(C)CC5)c(OC)c4)nc32)c(OC)c1` [YKL-05-093], in the assay on Ocy454 cells [1] (FIG. 5E), the RANKL expression entry is on record as “RANKL up-regulation”; the SOST expression result was “rapid and potent SOST suppression”. In the assay with Ocy454 cells [1] (Gsα-deficient Ocy454, 0.5 μM), the RANKL expression result is recorded as “RANKL up-regulation with effects similar to forskolin” and the SOST expression result was “SOST suppression”. For the same compound, the “stimulation of RANKL expression” value in the assay on Ocy454 cells [1] (cells lacking CRTC2, PTH 1 nM or YKL-05-093 0.5 μM, 4 hours) is given as “abrogated”. Also, in the assay on Ocy454 cells [1] (setting [5]), the “genes measured with SIK2/3-dependent regulation” value was 13/19 and the “genes measured with regulation independent of the presence of SIK2/3” value is given as 6/19. In addition, the SOST expression entry in the assay with Ocy454 cells [1] (osteocytes lacking SIK2 and SIK3, 0.5 μM, 4 hours) is recorded as “did not decrease HDAC4 S246 phosphorylation or cause SOST suppression”. In the assay with Ocy454 cells [3], the “genes down-regulated by both PTH and YKL-05-093” value is recorded as 45 genes; the “genes down-regulated by the agent alone” value turned out to be 59 genes; the “genes up-regulated by both PTH and YKL-05-093” value is 97 genes; the “genes up-regulated by the agent alone” value amounted to 56 genes. Besides, the “SIK2 S358 phosphorylation” value with Ocy454 cells [2] (control and Gsα-deficient Ocy454 cells, 10 μM, 30 minutes) is reported as “did not increase SIK2 S358 phosphorylation”. In the assay on Ocy454 cells [2] (osteocytes lacking SIK2 and SIK3, 10 μM for 45 minutes), the “HDAC4 S246 phosphorylation” value was “did not decrease HDAC4 S246 phosphorylation”.
